US20130097725A1, “SOYBEAN NODULATION FACTOR RECEPTOR PROTEINS, ENCODING NUCLEIC ACIDS AND USES THEREFOR” (The University of Queensland, priority 2005, published 2013)
Marks after values point to notes of the source that are not given here.

What was measured:
[1] = test system: soybean plants (nod49, nod139, Bragg); experiment: Interaction of B. japonicum inoculum titer and Nod Factor on nodule number; assay type: in vivo, Glycine max; conditions: for nodule number: nod49, Plus NF 10^−8 M, 35 days
Source text: We tested this phenomenon by inoculating nod49 plants with different titers of B. japonicum CB1809 and observed increased partial nodulation success per plant with elevated rhizobial concentration. […] Since infection thread formation is essential for the progression of early CCDs (FIG. 4B), mutations in GmNFR1α result in non-nodulation. Thus GmNFR1α mutants, when exposed to high NF levels, form nodules via normal infection, showing that GmNFR1β suffices for all early nodule ontogeny steps.

[2] = test system: soybean plants (nod49, nod139, Bragg); experiment: as above; assay type: in vivo, Glycine max; conditions: Plus NF 10^−8 M, 35 days

NodV-MeFuc [NF]
nodule number ([1]; B. japonicum CB1809 10^3 cfu·ml^−1): 0.0 ^a
nodule number ([1]; B. japonicum CB1809 10^7 cfu·ml^−1): 0.7 ± 0.2 ^b
nodule number ([1]; B. japonicum CB1809 10^10 cfu·ml^−1): 2.3 ± 0.4 ^c
nodulation on addition of NF to the nutrient medium ([1]; nod49 mutant plants, NF 10 nM): significantly increased
nodule number ([2]; Bragg, B. japonicum CB1809 10^3 cfu·ml^−1): 82.5 ± 5.0 ^d
nodule number ([2]; Bragg, B. japonicum CB1809 10^7 cfu·ml^−1): 101.4 ± 8.5 ^e
nodule number ([2]; Bragg, B. japonicum CB1809 10^10 cfu·ml^−1): 104.2 ± 6.9 ^e
nodule number ([2]; nod139, B. japonicum CB1809 10^3 cfu·ml^−1): 0.0 ^a
nodule number ([2]; nod139, B. japonicum CB1809 10^7 cfu·ml^−1): 0.0 ^a
nodule number ([2]; nod139, B. japonicum CB1809 10^10 cfu·ml^−1): 0.2 ± 0.2 ^a
